# From patent US20230094832A1, “ANTIBODY-DRUG CONJUGATE COMPRISING IMMUNE CHECKPOINT INHIBITOR AND EXOSOME SECRETION INHIBITOR, AND PHARMACEUTICAL COMPOSITION COMPRISING SAME” (Research & Business Foundation Sungkyunkwan University, priority 2020, published 2023)
# Key:
# [1] = tested on: melanoma cell line B16F10; test: Cytotoxicity evaluation by MTT assay; assay type: cell-based; details: B16F10 cells, 24 hours treatment at each concentration, FIG. 4
# Procedure: In order to evaluate the cytotoxicity of Ab-VC-AMB prepared in Example 1, a melanoma cell line B16F10 (1×10^4) was attached to a 96-well plate, and after 24 hours, and the cell line was treated with Ab, AMB, AMB+Ab, and Ab-VC-AMB at each concentration, respectively. After 24 hours, the number of living cells was calculated by MTT assay. For this, 5 mg/ml MTT reagent was diluted 1/10 in the medium, and then 200 μl was added to each well of the 96-well plate. After the cells were cultured in an incubator for 1.5 hours, the MTT reagent was removed, and 200 μl of DMSO was added to each well of the 96-well plate. After the cells were cultured at room temperature for 30 minutes, cell viability was calculated by confirming the absorbance at 570 nm.
# [2] = tested on: B16F10 melanoma tumors; test: Therapeutic efficacy (tumor volume) in B16F10 cancer animal model; assay type: in vivo; details: B16F10 mice, FIGS. 5 and 6
# Procedure: (§1) In order to evaluate the therapeutic efficacy of Ab-VC-AMB prepared in Example 1 in a disease animal model, a cancer animal model was produced by subcutaneously inoculating B16F10 (1×10^6 cells), which is a melanoma cell line, into mice and allowing tumors to grow for 10 days (Day 0). Thereafter, on days 1, 4, 7 and 10, Ab-VC-AMB, saline, an antibody (Ab) or AMB was injected intravenously into the cancer animal model (Ab 5 mg/kg, AMB 10 mg/kg, Ab-VC-AMB 5 mg/kg), and then the therapeutic efficacy was evaluated for 11 days.
# [3] = design: species or system mice; details: mouse, in vivo, iv
# Procedure: as §1
# [4] = tested on: major organs (liver, lungs, spleen, kidneys, and heart) and cancer tissue; test: Histopathological evaluation by H&E staining; assay type: in vivo, mice; details: cancer tissue compared to the control, FIG. 8
# Procedure: A histopathological evaluation was performed by removing major organs and cancer tissue and staining the tissue by a hematoxylin and eosin (H&E) staining method. For this purpose, the major organs (liver, lungs, spleen, kidneys, and heart) and cancer tissue were removed, placed in a cassette, and fixed in a fixative solution. Then, after a paraffin block was prepared, a sample was prepared with a thickness of 6 μm. After the sample was stained with a Harris hematoxylin staining solution and an eosin-phloxine staining solution, the sample was observed through a slide scanner.
# [5] = tested on: exosomes in plasma; test: Exosomal total protein amount in plasma exosomes (BCA analysis); assay type: in vivo, mice; details: plasma exosomes after efficacy study, compared to the Ab control, FIG. 9
# Procedure: (§2) To evaluate the ability of Ab-VC-AMB prepared in Example 1 to inhibit the secretion of exosomes, after the animal model for which the therapeutic efficacy evaluation was completed was sacrificed, plasma was isolated, and exosomes were isolated and extracted using an exosome isolation kit (Invitrogen total exosome isolation reagent). The amount of protein was measured by performing BCA analysis (bicinchoninic acid assay) on the isolated exosomes. Albumin standards diluted to various concentrations and 150 μl of an unknown sample whose protein amount was not known were put into a 96-well plate, respectively. 150 μl of a working reagent containing bicinchoninic acid from a BCA protein […] kit (Pierce) was placed in each well containing each sample, and the resulting mixture was shaken and mixed well, and then incubated at 37° C. for 2 hours. Thereafter, the protein concentration of exosomes was calculated by measuring the absorbance at 562 nm using a microplate reader.
# [6] = tested on: PD-L1 on the surface of exosomes; test: Exosomal PD-L1 quantified by ELISA; assay type: in vivo, mice; details: plasma exosomes after efficacy study, compared to the other groups, FIG. 10
# Procedure: as §2
# In addition, PD-L1 on the surface of exosomes, which is a factor known to suppress the activity of T cells, was quantified through ELISA analysis. A 96-well plate was coated with 2 μg/ml PD-L1 antibody incubated at 4° C. for 16 hours […]. […] Absorbance at 450 nm was measured using a microplate reader.
Structure (SMILES),cytotoxicity (cell viability) [1],"volume of cancer compared to the Ab control ([2]; i.v. on days 1, 4, 7 and 10, Ab-VC-AMB 5 mg/kg vs Ab 5 mg/kg, 11 days)","cancer volume compared to the control to which saline was administered ([2]; i.v. on days 1, 4, 7 and 10, Ab-VC-AMB 5 mg/kg, evaluated for 11 days)",changes in body weight (toxicity) [3],cell death area in the cancer tissue (H&E) [4],amount of exosomal protein [5],exosomal PD-L1 level [6]
"COC(c1ccccc1)(c1ccccc1)[C@H](Oc1nc(C)cc(C)n1)C(=O)O [AMB, ambrisentan, reference compound]",does not have a direct relationship with toxicity affecting cells,–,–,–,–,–,–
COC(c1ccccc1)(c1ccccc1)C(Oc1nc(C)cc(C)n1)C(=O)OCc1ccc(NC(=O)C(CCCNC(N)=O)CC(=O)C(NC(=O)CCCCCN2C(=O)CC(SC)C2=O)C(C)C)cc1 (centres unmarked) [Ab-VC-AMB],high biocompatibility,about 45%,24%,does not show toxicity,a large cell death area in the cancer tissue was observed compared to the control,statistically significant low amount of exosomal protein compared to the Ab control,tendency to decrease remarkably
